The values below come from PubChem BioAssay AID2033 (NMMLSC, 2009).

For orientation: Ki means a measure of affinity in units of concentration, obtained from inhibition or displacement.

Chain of Ras-related protein Rab-2A (Canis lupus familiaris) (P61105 whole entry, looked up): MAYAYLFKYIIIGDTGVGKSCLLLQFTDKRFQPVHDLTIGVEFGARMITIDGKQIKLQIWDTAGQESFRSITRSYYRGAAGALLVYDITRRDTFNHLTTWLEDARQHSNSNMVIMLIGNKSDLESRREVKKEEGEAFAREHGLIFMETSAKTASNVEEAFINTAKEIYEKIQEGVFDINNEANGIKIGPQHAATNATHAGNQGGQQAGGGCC

This experiment concerns the target Ras-related protein Rab-2A (Canis lupus familiaris) (UniProt P61105). Nature of the experiment: fluorescent GTP competition at wildtype Rab2A – biochemical, multiplex dose response, Bodipy-FL-GTP, flow cytometry, SAR follow-up (AID 2033). Particulars: GST-Rab2 beads, Bodipy-FL-GTP binding, Ki calculated from EC50.
As for `COc1ccc(-c2noc(CCC(=O)N3CCN(c4ccccc4C(F)(F)F)CC3)n2)cc1`, the Ki is 0.13 µM.

As to `Cc1ccc(C)c(N2CCN(C(=O)CCc3nc(-c4ccccc4)no3)CC2)c1`, the Ki is 0.05 µM.

With `Cc1ccc(C)c(N2CCN(C(=O)CCc3nc(-c4ccc(Br)cc4)no3)CC2)c1`, the Ki is 0.19 µM.

With `COc1ccc(-c2ccc(CCC(=O)N3CCN(c4cc(C)ccc4C)CC3)s2)cc1`, the Ki is 0.16 µM.

As to `COc1ccc(-c2noc(CCCC(=O)N3CCN(c4cc(C)ccc4C)CC3)n2)cc1`, the Ki is 1.03 µM.

For `Cc1ccc(C)c(N2CCN(C(=O)CCc3nc(-c4cccc(Cl)c4)no3)CC2)c1`, the Ki was 0.18 µM.

For the compound `COc1ccc(-c2noc(CCC(=O)N3CCN(c4cccc(C)c4C)CC3)n2)cc1`, the Ki was 0.15 µM.

In the case of `COc1ccc(-c2noc(CCC(=O)N3CCN(c4ccc(C)cc4)CC3)n2)cc1`, the Ki is 0.05 µM.

For the compound `Cc1ccc(C)c(N2CCN(C(=O)CCc3nc(-c4ccccc4Br)no3)CC2)c1`, the Ki is 0.2 µM.

Consider `COc1ccc(-c2noc(CCC(=O)N3CCN(c4cc(C)ccc4C)CC3)n2)cc1`, for which the Ki is 0.16 µM.

As to `COc1ccc(-c2ccc(CCC(=O)N3CCN(c4cc(C)ccc4C)CC3)o2)cc1`, the Ki is 0.96 µM.

For the compound `Cc1ccc(C)c(N2CCN(C(=O)CCc3nc(-c4ccc(F)cc4)no3)CC2)c1`, the Ki was 0.02 µM.

As to `COc1ccc(-c2noc(CCC(=O)N3CCN(c4ccccc4F)CC3)n2)cc1`, the Ki is 0.05 µM.

Regarding `COc1cccc(-c2noc(CCC(=O)N3CCN(c4cc(C)ccc4C)CC3)n2)c1`, the Ki was 0.25 µM.

As to `COc1ccc(-c2ccc(CCC(=O)N3CCN(c4cc(C)ccc4C)CC3)[nH]2)cc1`, the Ki was 0.33 µM.

As to `Cc1ccc(C)c(N2CCN(C(=O)CCc3nc(-c4ccccc4F)no3)CC2)c1`, the Ki was 0.06 µM.

As to `Cc1ccc(-c2noc(CCC(=O)N3CCN(c4cc(C)ccc4C)CC3)n2)cc1`, the inhibitory constant (Ki) was 0.26 µM.

Consider `COc1ccc(-c2noc(CCC(=O)N3CCN(c4cccc(OC)c4)CC3)n2)cc1`, for which the Ki is 0.41 µM.

On to `Cc1cccc(-c2noc(CCC(=O)N3CCN(c4cc(C)ccc4C)CC3)n2)c1`, for which the Ki was 0.08 µM.

In the case of `COc1ccc(-c2cc(CCC(=O)N3CCN(c4cc(C)ccc4C)CC3)on2)cc1`, the Ki was 0.16 µM.

Regarding `Cc1ccc(C)c(N2CCN(C(=O)CCc3nc(-c4ccccc4C)no3)CC2)c1`, the Ki is 0.11 µM.

Take `Cc1ccc(C)c(N2CCN(C(=O)CCc3nc(-c4ccc(Cl)cc4)no3)CC2)c1`: the Ki is 0.11 µM.

Turning to `COc1ccc(-c2noc(CCC(=O)N3CCC(c4cc(C)ccc4C)CC3)n2)cc1`, the Ki was 0.16 µM.

For `COc1ccc(-c2noc(CCC(=O)N3CCN(c4ccccc4C)CC3)n2)cc1`, the Ki was 0.16 µM.

On to `COc1ccc(-c2noc(CCC(=O)N3CCN(c4ccccc4Br)CC3)n2)cc1`, for which the Ki is 0.21 µM.

Regarding `COc1ccc(-c2noc(CCC(=O)N3CCN(c4ccccc4OC)CC3)n2)cc1`, the inhibition constant (Ki) is 0.08 µM.

As for `COc1ccc(-c2noc(CCC(=O)N3CCN(c4cccc(Cl)c4)CC3)n2)cc1`, the Ki was 0.54 µM.

In the case of `COc1ccc(-c2noc(CCC(=O)N3CCN(c4ccccc4Cl)CC3)n2)cc1`, the Ki is 0.15 µM.

Turning to `Cc1ccc(C)c(N2CCN(C(=O)CCc3nc(-c4cccc(Br)c4)no3)CC2)c1`, the Ki is 0.23 µM.
